Assay results from patent US9375004B2 (Bayer Intellectual Property GmbH, priority 2010, dated 2016).

What was measured:
Puccinia triticina = experiment: Puccinia triticina-test (wheat)/preventive; type: in vivo; conditions: 500 ppm, preventive, evaluated 8 days after inoculation
Pyrenophora teres = experiment: Pyrenophora teres-test (barley)/preventive; type: in vivo; conditions: 500 ppm, preventive, evaluated 8 days after inoculation
[1] = tested on: Fusarium nivale (var. majus); experiment: Fusarium nivale (var. majus)-test (wheat)/preventive; conditions: for Efficacy: preventive, evaluated 5 days after inoculation; for protection: dose of 250 ppm and 500 ppm of active ingredient
Experimental: Fusarium Nivale (Var. Majus)-Test (Wheat)/Preventive
Solvent: 49 parts by weight of N,N-dimethylacetamide
(§1) Emulsifier: 1 part by weight of alkylaryl polyglycol ether
After the spray coating has been dried, the plants are slightly injured by using a sandblast and afterwards they are sprayed with a conidia suspension of Fusarium nivale (var. majus).
The plants are placed in the greenhouse under a translucent incubation cabinet at a temperature of approximately 10° C. and a relative atmospheric humidity of approximately 100%.
The test is evaluated 5 days after the inoculation.

[2] = logP by HPLC on reversed-phase column (EEC Directive 79/831 Annex V.A8); conditions: EEC Directive 79/831 Annex V.A8
Alternaria solani = experiment: Alternaria test (tomato)/preventive; type: in vivo; conditions: 500 ppm, preventive, evaluated 7 days after inoculation
Uromyces appendiculatus = conditions: 100 ppm, beans, preventive, evaluated 10 days after inoculation
Venturia inaequalis = experiment: Venturia test (apples)/preventive; conditions: 100 ppm, preventive, evaluated 10 days after inoculation
Experimental: Venturia Test (Apples)/Preventive
Solvent: 24.5 parts by weight of acetone • 24.5 parts by weight of N,N-dimethylformamide
as §1
After the spray coating has dried on, the plants are inoculated with an aqueous conidia suspension of the causal agent of apple scab (Venturia inaequalis) and then remain for 1 day in an incubation cabinet at approximately 20° C. and a relative atmospheric humidity of 100%.
The plants are then placed in a greenhouse at approximately 21° C. and a relative atmospheric humidity of approximately 90%.
The test is evaluated 10 days after the inoculation.

[3] = HPLC on reversed-phase column (C 18)
[4] = HPLC on a reversed-phase column (C 18)

SMILES: C=C(C)COc1cccc(NC(=O)c2c(C(F)F)nn(C)c2F)c1 [Example 176]
- Efficacy (Puccinia triticina): 100%
- Efficacy (Pyrenophora teres): 100%
- Efficacy ([1]; 500 ppm): 100%
- logP [2, 3]: 3.15

SMILES: Cn1nc(C(F)F)c(C(=S)Nc2ccccc2CC[Si](C)(C)C)c1Cl [Example 25]
- Efficacy (Puccinia triticina): 100%
- Efficacy ([1]; 500 ppm): 88%
- logP [2, 3]: 4.56

SMILES: CC1CC(C)(C)c2cccc(NC(=O)c3c(C(F)F)nn(C)c3Cl)c21 (stereo not shown) [Example 65]
- Efficacy (Alternaria solani): 80%
- Efficacy (Puccinia triticina): 100%
- Efficacy (Pyrenophora teres): 100%
- Efficacy (Uromyces appendiculatus): 100%
- Efficacy (Venturia inaequalis): 98%
- Efficacy ([1]; 500 ppm): 86%
- logP [2, 3]: 4.04

SMILES: Cn1nc(C(F)F)c(C(=O)Nc2cccc(Oc3cccc(C(F)(F)F)c3)c2)c1Cl [Example 255]
- Efficacy (Puccinia triticina): 94%
- Efficacy (Uromyces appendiculatus): 73%
- Efficacy ([1]; 500 ppm): 100%
- logP [2, 4]: 3.89

SMILES: Cn1nc(C(F)F)c(C(=O)Nc2cccc(OC(F)(F)F)c2)c1Cl [Example 181]
- Efficacy (Uromyces appendiculatus): 100%
- logP [2, 3]: 3.25

SMILES: CCC(CC(C)C)c1ccccc1NC(=O)c1c(C(F)F)nn(C)c1F (stereo not shown) [Example 20]
- Efficacy (Alternaria solani): 90%
- logP [2, 3]: 4.28

SMILES: CC(C)C1C2CCC1c1c(NC(=O)c3cn(C)nc3C(F)F)cccc12 (stereo not drawn) [15.202 (syn/anti 9/1) from WO-2004/035589] [3-(difluoromethyl)-N-(9-isopropyl-1,2,3,4-tetrahydro-1,4-methanonaphthalen-5-yl)-1-methyl-1H-pyrazole-4-carboxamide, reference compound]
- Efficacy ([1]; 250 ppm): 50%
- Efficacy ([1]; 500 ppm): 50%

SMILES: Cn1nc(C(F)F)c(C(=O)Nc2ccccc2-c2ccccc2)c1Cl [Example 74]
- Efficacy (Alternaria solani): 78%
- logP [2, 3]: 3.59

SMILES: Cn1nc(C(F)F)c(C(=O)Nc2cccc3c2CCC3)c1Cl [Example 55]
- Efficacy (Puccinia triticina): 100%
- Efficacy (Pyrenophora teres): 71%
- Efficacy ([1]; 500 ppm): 83%
- logP [2, 3]: 3.19

SMILES: CC(C)C1C2CCC1c1c(NC(=O)c3cn(C)nc3C(F)F)cccc12 (stereo not drawn) [15.202 (syn/anti 3/7) from WO-2004/035589] [3-(difluoromethyl)-N-(9-isopropyl-1,2,3,4-tetrahydro-1,4-methanonaphthalen-5-yl)-1-methyl-1H-pyrazole-4-carboxamide, reference compound]
- Efficacy ([1]; 250 ppm): 50%
- Efficacy ([1]; 500 ppm): 83%

SMILES: Cc1nn(C)c(F)c1C(=O)Nc1ccccc1C(C)CC(C)C (stereo not shown) [I-21 from WO-2003/010149, 5-fluoro-1,3-dimethyl-N-[2-(4-methylpentan-2-yl)phenyl]-1H-pyrazole-4-carboxamide, reference compound]
- Efficacy ([1]; 250 ppm): 20%
- Efficacy ([1]; 500 ppm): 40%
- protection [1]: less than 40%

SMILES: Cn1cc(C(=O)Nc2ccccc2C2CC2C2CC2)c(C(F)F)n1 (stereo not shown) [2.34 from WO-2003/074491, N-{2-[1,1′-bi(cyclopropyl)-2-yl]phenyl}-3-(difluoromethyl)-1-methyl-1H-pyrazole-4-carboxamide, reference compound]
- Efficacy ([1]; 500 ppm): 57%
- Efficacy ([1]; 500 ppm, listed as 2.34): less than 60%

SMILES: Cn1cc(C(=O)Nc2cccc3c2C2CCC3C2=C(Cl)Cl)c(C(F)F)n1 (stereo not shown) [A1.1 from WO-2008/131901, N-[9-(dichloromethylene)-1,2,3,4-tetrahydro-1,4-methanonaphthalen-5-yl]-3-(difluoromethyl)-1-methyl-1H-pyrazole-4-carboxamide, reference compound]
- Efficacy ([1]; 250 ppm): 75%
- Efficacy ([1]; 500 ppm): 88%
- protection [1]: at least 70%

SMILES: CCCOc1cccc(NC(=O)c2c(C(F)F)nn(C)c2Cl)c1 [Example 174]
- Efficacy (Alternaria solani): 70%
- logP [2, 3]: 3.25

SMILES: COC(C)(C)C#Cc1ccccc1NC(=O)c1c(C(F)F)nn(C)c1F [Example 19]
- Efficacy (Alternaria solani): 80%
- logP [2, 3]: 3.34

SMILES: CC(C)Oc1cccc(NC(=O)c2c(C(F)F)nn(C)c2F)c1 [Example 170]
- Efficacy (Puccinia triticina): 100%
- Efficacy ([1]; 500 ppm): 86%
- logP [2, 3]: 2.88

SMILES: Cc1cc(C)c(-c2cccc(NC(=O)c3c(C(F)F)nn(C)c3Cl)c2)c(C)c1 [Example 212]
- Efficacy (Puccinia triticina): 86%
- Efficacy ([1]; 500 ppm): 75%
- logP [2, 3]: 4.56

SMILES: Cn1nc(C(F)F)c(C(=O)Nc2cccc(OC(F)(F)C(F)F)c2)c1Cl [Example 188]
- Efficacy (Puccinia triticina): 100%
- Efficacy (Pyrenophora teres): 92%
- Efficacy (Uromyces appendiculatus): 100%
- logP [2, 3]: 3.09

SMILES: CC(C)C1C2CCC1c1c(NC(=O)c3cn(C)nc3C(F)F)cccc12 (stereo not shown) [Example 15.202, 3-(difluoromethyl)-N-(9-isopropyl-1,2,3,4-tetrahydro-1,4-methanonaphthalen-5-yl)-1-methyl-1H-pyrazole-4-carboxamide, reference compound]
- protection [1]: average (less than 50%) protection to good (at least 70%) protection

SMILES: Cn1nc(C(F)F)c(C(=O)Nc2cccc(-c3ccc(C(C)(C)C)cc3)c2)c1F [compound 219]
- logP [2, 3]: 4.73

SMILES: CC(C)Oc1cccc(NC(=O)c2c(C(F)F)nn(C)c2Cl)c1 [Example 169]
- Efficacy (Puccinia triticina): 100%
- Efficacy (Pyrenophora teres): 100%
- Efficacy (Uromyces appendiculatus): 100%
- Efficacy (Venturia inaequalis): 96%
- Efficacy ([1]; 500 ppm): 71%
- logP [2, 3]: 2.98

SMILES: Cn1nc(C(F)F)c(C(=O)Nc2ccccc2-c2cccc(OC(F)(F)F)c2)c1F [compound 142]
- logP [2, 3]: 3.83

SMILES: Cn1nc(C(F)F)c(C(=O)Nc2ccccc2-c2ccc(F)c(Cl)c2)c1Cl [compound 103]
- logP [2, 3]: 3.85

SMILES: Cn1nc(C(F)F)c(C(=O)Nc2ccc(-c3ccccc3)cc2)c1Cl [compound 265]
- logP [2, 4]: 3.50

SMILES: Cc1cc(C)cc(-c2cccc(NC(=O)c3c(C(F)F)nn(C)c3Cl)c2)c1 [compound 206]
- logP [2, 3]: 4.34

SMILES: Cn1nc(C(F)F)c(C(=O)Nc2cccc(-c3ccc(Cl)cc3Cl)c2)c1F [compound 229]
- logP [2, 3]: 4.21

SMILES: CC(C)c1cccc(-c2cccc(NC(=O)c3c(C(F)F)nn(C)c3Cl)c2)c1 [compound 213]
- logP [2, 3]: 4.61

SMILES: Cn1nc(C(F)F)c(C(=O)Nc2ccc(-c3cc(Cl)cc(Cl)c3)cc2)c1F [compound 266]
- logP [2, 4]: 4.51

SMILES: CCOCCOc1cc(NC(=O)c2c(C(F)F)nn(C)c2F)ccc1C [compound 185]
- logP [2, 3]: 2.96

SMILES: Cn1nc(C(F)F)c(C(=O)Nc2cccc(-c3cc(Cl)cc(Cl)c3)c2)c1F [compound 231]
- logP [2, 3]: 4.39

SMILES: Cn1nc(C(F)F)c(C(=O)Nc2cccc(Sc3ccccc3)c2)c1F [compound 257]
- logP [2, 4]: 3.65

SMILES: C#CCOc1ccccc1NC(=O)c1c(C(F)F)nn(C)c1F [compound 26]
- logP [2, 3]: 2.71

SMILES: CCOc1ccc(NC(=O)c2c(C(F)F)nn(C)c2Cl)cc1OCC [compound 168]
- logP [2, 3]: 2.70

SMILES: CC(C)COc1ccc(-c2cccc(NC(=O)c3c(C(F)F)nn(C)c3F)c2)cc1 [compound 235]
- logP [2, 3]: 4.61

SMILES: Cn1nc(C(F)F)c(C(=O)Nc2cccc(-c3ccc(OC(F)(F)F)cc3)c2)c1F [compound 243]
- logP [2, 3]: 4.14

SMILES: CC(C)c1cccc(-c2ccccc2NC(=O)c2c(C(F)F)nn(C)c2F)c1 [compound 93]
- logP [2, 3]: 4.30

SMILES: Cn1nc(C(F)F)c(C(=O)Nc2ccccc2-c2cc(F)cc(F)c2)c1F [compound 91]
- logP [2, 3]: 3.31

SMILES: Cn1nc(C(F)F)c(C(=O)Nc2ccc(C3CCCCC3)cc2)c1F [compound 262]
- logP [2, 4]: 4.21

SMILES: Cc1cc(Cl)ccc1Oc1cccc(NC(=O)c2c(C(F)F)nn(C)c2F)c1 [Example 254]
- Efficacy (Alternaria solani): 70%
- logP [2, 4]: 4.19

SMILES: Cn1nc(C(F)F)c(C(=O)Nc2cccc(-c3cccc(OC(F)(F)F)c3)c2)c1F [compound 242]
- logP [2, 3]: 4.11

SMILES: Cn1nc(C(F)F)c(C(=O)Nc2cccc(Sc3ccccc3)c2)c1Cl [compound 256]
- logP [2, 4]: 3.85

SMILES: Cc1cccc(CCC(C)(C)C)c1NC(=O)c1c(C(F)F)nn(C)c1F [compound 15]
- logP [2, 3]: 3.85

SMILES: Cn1nc(C(F)F)c(C(=O)Nc2cccc(-c3ccc(C(F)(F)F)cc3)c2)c1F [compound 225]
- logP [2, 3]: 3.99

SMILES: Cn1nc(C(F)F)c(C(=O)Nc2cccc(-c3ccc(F)c(Cl)c3)c2)c1F [compound 217]
- logP [2, 3]: 3.89

SMILES: Cc1ccccc1Oc1ccccc1NC(=O)c1c(C(F)F)nn(C)c1F [compound 160]
- logP [2, 3]: 3.96

SMILES: Cn1nc(C(F)F)c(C(=O)Nc2cccc3c2CCC3)c1F [Example 54]
- Efficacy (Alternaria solani): 70%
- logP [2, 3]: 2.94

SMILES: Cc1ccccc1-c1ccccc1NC(=O)c1c(C(F)F)nn(C)c1F [Example 75]
- Efficacy (Alternaria solani): 94%
- Efficacy (Puccinia triticina): 70%
- Efficacy (Pyrenophora teres): 100%
- logP [2, 3]: 3.74

SMILES: Cn1nc(C(F)F)c(C(=O)Nc2ccccc2OC(F)(F)C(F)C(F)(F)F)c1F (stereo not shown) [Example 32]
- Efficacy (Alternaria solani): 95%
- logP [2, 3]: 3.48

SMILES: Cn1nc(C(F)F)c(C(=O)Nc2cccc(-c3cc(F)cc(F)c3)c2)c1F [compound 209]
- logP [2, 3]: 3.62

SMILES: Cn1nc(C(F)F)c(C(=O)Nc2ccc3c(c2)CCC3)c1Cl [Example 193]
- Efficacy (Puccinia triticina): 100%
- Efficacy ([1]; 500 ppm): 75%
- logP [2, 3]: 3.17

SMILES: CO/N=C(\C)c1ccc(-c2ccccc2NC(=O)c2c(C(F)F)nn(C)c2F)cc1 [compound 129]
- logP [2, 3]: 3.78

SMILES: Cn1nc(C(F)F)c(C(=O)Nc2ccccc2-c2cccc([Si](C)(C)C)c2)c1Cl [compound 132]
- logP [2, 3]: 5.25

SMILES: CCOCCOc1cc(NC(=O)c2c(C(F)F)nn(C)c2Cl)ccc1C [compound 184]
- logP [2, 3]: 3.13

SMILES: Cn1nc(C(F)F)c(C(=O)Nc2cccc(-c3cc(Cl)cc(Cl)c3)c2)c1Cl [compound 232]
- logP [2, 3]: 4.73
